Tests used:
Candida krusei E28 = experiment: In vitro antifungal activity, MIC by microdilution (NCCLS M27-A)
[1] = test system: Klebsiella pneumoniae J 14368/08 ESBL-positive; experiment: Screen against bacteria, MIC/IC80; type: cell-based; conditions: KP-E
Candida tropicalis 156 = experiment: In vitro antifungal activity, MIC by microdilution (NCCLS M27-A); conditions: CT
[2] = test system: Klebsiella pneumoniae D 11750/08; experiment: Screen against bacteria, MIC/IC80; type: cell-based; conditions: KP
[3] = test system: Candida albicans ATCC 44859; experiment: In vitro antifungal activity, MIC by microdilution (NCCLS M27-A)
Candida glabrata 20/l = experiment: as above; conditions: CG
[4] = test system: Staphylococcus epidermidis H 6966/08; experiment: Screen against bacteria, MIC/IC80; type: cell-based; conditions: SE
Escherichia coli CCM4517 = experiment: Screen against bacteria, MIC/IC80; type: cell-based; conditions: EC
[5] = test system: Staphylococcus aureus H 5996/08 Methiciline-resistant; experiment: Screen against bacteria, MIC/IC80; type: cell-based; conditions: MRSA
[6] = test system: Enterococcus sp. J 14365/08; experiment: Screen against bacteria, MIC/IC80; type: cell-based; conditions: EF
[7] = test system: Trichophyton mentagrophytes 445; experiment: In vitro antifungal activity, MIC by microdilution (NCCLS M27-A); conditions: TM
Method: (§1) In vitro antifungal activities of the compounds were evaluated on the collection of fungal strains deposited at the Department of Biological and Medical Sciences, Faculty of Pharmacy, Charles University, Czech Republic. All the isolates were maintained on Sabouraud dextrose agar prior to being tested.
(§2) Minimum inhibitory concentrations (MICs) were determined by the microdilution format of the NCCLS M27-A guidelines. […] RPMI 1640 (Sevapharma, Prague) medium supplemented with L-glutamine and buffered with 0.165 M morpholinepropanesulfonic acid to pH 7.0 was used as the test medium. The wells of the microdilution tray contained 100 μl of the RPMI 1640 medium with 2-fold serial dilutions of the compounds (1000 to 0.24 μmol/l for the new compounds) and 100 μl of inoculum suspension. Fungal inoculum in RPMI 1640 was prepared to give a final concentration of 5×103±0.2 cfu·ml-1. The trays were incubated at 35° C. and MICs were read visually for filamentous fungi and photometrically for yeasts as an optical density (OD) at 540 nm after 24 h and 48 h. The MICs were defined as 80% inhibition of the growth of control. MICs were determined twice and in duplicate. The deviations from the usually obtained were no higher than the nearest concentration value up and down the dilution scale.

[8] = test system: Candida albicans ATCC 90028; experiment: as above
Method: as §1, §2

[9] = test system: Pseudomonas aeruginosa CCM 1961; experiment: Screen against bacteria, MIC/IC80; type: cell-based; conditions: PA
Absidia corymbifera 272 = experiment: In vitro antifungal activity, MIC by microdilution (NCCLS M27-A); conditions: AC
Method: as §1, §2

[10] = test system: Staphylococcus aureus CCM 4516/08; experiment: Screen against bacteria, MIC/IC80; type: cell-based; conditions: SA
[11] = test system: Candida parapsilosis ATCC 22019; experiment: In vitro antifungal activity, MIC by microdilution (NCCLS M27-A); conditions: CP
Method: as §1, §2

Candida krusei ATCC 6258 = experiment: as above
[12] = test system: Candida lusitaniae 2446/l; experiment: as above; conditions: CL
Method: as §1, §2

[13] = test system: Aspergillus fumigatus 231; experiment: as above; conditions: AF

Measured: MIC/IC80

R-3-methyl-1-[1-(ethoxyethoxycarbonyl)-1-methylmethoxycarbonylmethyl]imidazolium octyl sulphate [KG173]
>1000 µM: Candida krusei E28; CK2, 24 h | Candida krusei E28; CK2, 48 h | [1]; 24 h | [1]; 48 h | Candida tropicalis 156; 24 h | Candida tropicalis 156; 48 h | [2]; 24 h | [2]; 48 h | [3]; CA1, 24 h | [3]; CA1, 48 h | Candida glabrata 20/l; 24 h | Candida glabrata 20/l; 48 h | [4]; 24 h | [4]; 48 h | Escherichia coli CCM4517; 24 h | Escherichia coli CCM4517; 48 h | [5]; 24 h | [5]; 48 h | [6]; 24 h | [6]; 48 h | [7]; 72 h | [7]; 120 h | [8]; CA2, 24 h | [8]; CA2, 48 h | [9]; 24 h | [9]; 48 h | Absidia corymbifera 272; 24 h | Absidia corymbifera 272; 48 h | [10]; 24 h | [10]; 48 h | [11]; 24 h | [11]; 48 h | Candida krusei ATCC 6258; CK1, 24 h | Candida krusei ATCC 6258; CK1, 48 h | [12]; 24 h | [12]; 48 h | [13]; 24 h | [13]; 48 h

CCCCCCCCOS(=O)(=O)[O-].COC(=O)[C@@H](OC(=O)Cn1cc[n+](C)c1)c1ccccc1 [KG88, S-3-methyl-1-[1-(methoxycarbonyl)-1-phenylmethoxycarbonylmethyl]imidazolium octyl sulphate]
>1000 µM: Candida krusei E28; CK2, 24 h | Candida krusei E28; CK2, 48 h | [1]; 24 h | [1]; 48 h | Candida tropicalis 156; 24 h | Candida tropicalis 156; 48 h | [2]; 24 h | [2]; 48 h | [3]; CA1, 24 h | [3]; CA1, 48 h | Candida glabrata 20/l; 24 h | Candida glabrata 20/l; 48 h | [4]; 24 h | [4]; 48 h | Escherichia coli CCM4517; 24 h | Escherichia coli CCM4517; 48 h | [5]; 24 h | [5]; 48 h | [6]; 24 h | [6]; 48 h | [7]; 72 h | [7]; 120 h | [8]; CA2, 24 h | [8]; CA2, 48 h | [9]; 24 h | [9]; 48 h | Absidia corymbifera 272; 24 h | Absidia corymbifera 272; 48 h | [10]; 24 h | [10]; 48 h | [11]; 24 h | [11]; 48 h | Candida krusei ATCC 6258; CK1, 24 h | Candida krusei ATCC 6258; CK1, 48 h | [12]; 24 h | [12]; 48 h | [13]; 24 h | [13]; 48 h

CCOCCOC(=O)C(OC(=O)Cn1cc[n+](C)c1)c1ccccc1.[Br-] (centres unmarked) [KG818, RS-3-methyl-1-[1-(ethoxyethoxycarbonyl)-1-phenylmethoxycarbonylmethyl]imidazolium bromide]
>1000 µM: Candida krusei E28; CK2, 24 h | Candida krusei E28; CK2, 48 h | [1]; 24 h | [1]; 48 h | Candida tropicalis 156; 24 h | Candida tropicalis 156; 48 h | [2]; 24 h | [2]; 48 h | [3]; CA1, 24 h | [3]; CA1, 48 h | Candida glabrata 20/l; 24 h | Candida glabrata 20/l; 48 h | [4]; 24 h | [4]; 48 h | Escherichia coli CCM4517; 24 h | Escherichia coli CCM4517; 48 h | [5]; 24 h | [5]; 48 h | [6]; 24 h | [6]; 48 h | [7]; 72 h | [7]; 120 h | [8]; CA2, 24 h | [8]; CA2, 48 h | [9]; 24 h | [9]; 48 h | Absidia corymbifera 272; 24 h | Absidia corymbifera 272; 48 h | [10]; 24 h | [10]; 48 h | [11]; 24 h | [11]; 48 h | Candida krusei ATCC 6258; CK1, 24 h | Candida krusei ATCC 6258; CK1, 48 h | [12]; 24 h | [12]; 48 h | [13]; 24 h | [13]; 48 h

CCOCCOC(=O)[C@@H](C)OC(=O)C[n+]1ccn(C)c1 [KG161, R-3-methyl-1-[1-(ethoxyethoxycarbonyl)-1-methylmethoxycarbonylmethyl]imidazolium bromide]
>1000 µM: Candida krusei E28; CK2, 24 h | Candida krusei E28; CK2, 48 h | [1]; 24 h | [1]; 48 h | Candida tropicalis 156; 24 h | Candida tropicalis 156; 48 h | [2]; 24 h | [2]; 48 h | [3]; CA1, 24 h | [3]; CA1, 48 h | Candida glabrata 20/l; 24 h | Candida glabrata 20/l; 48 h | [4]; 24 h | [4]; 48 h | Escherichia coli CCM4517; 24 h | Escherichia coli CCM4517; 48 h | [5]; 24 h | [5]; 48 h | [6]; 24 h | [6]; 48 h | [7]; 72 h | [7]; 120 h | [8]; CA2, 24 h | [8]; CA2, 48 h | [9]; 24 h | [9]; 48 h | Absidia corymbifera 272; 24 h | Absidia corymbifera 272; 48 h | [10]; 24 h | [10]; 48 h | [11]; 24 h | [11]; 48 h | Candida krusei ATCC 6258; CK1, 24 h | Candida krusei ATCC 6258; CK1, 48 h | [12]; 24 h | [12]; 48 h | [13]; 24 h | [13]; 48 h

— patent US8785655B2, “Ionic liquid solvents” (Dublin City University, priority 2009, dated 2014)
